System: yeast genes (expressed mRNA)
Test: DNA chip measurement of expressed mRNA of yeast genes after culture with a toxic chemical substance
Assay type: cell-based, Saccharomyces cerevisiae S288C
Conditions: for level of expressed mRNA in the presence of chemical substance / level in the absence of chemical substance: cultured two hours with the chemical substance; for The level of expressed mRNA in the presence of chemical substance/The level of expressed mRNA in the absence of chemical substance: cultured two hours with substance
Experimental: Yeast (Saccharomyces cerevisiae S288C (a SUC2mal mel gap2 CUP1)) were cultured at 25° C. on YPD medium (yeast extract 1%, polypeptone 2%, glucose 2%). One of toxic chemical substances was added to the cell at logarithmic growth phase, and the cell was further cultured for two hours. Cell was cultured without any chemical substance in the same condition, and was used as a control. Concentrations of the chemical substances were defined to inhibit the growth of the yeast but not lead to death.
After the completion of cultivation, the culture was centrifuged to collect the cells. To the cells, sodium acetate buffer (50 mM sodium acetate, 10 mM EDTA, 1% SDS) was added, and the mixture was shaken at 65° C. for five minutes, followed by returning to room temperature, and obtaining the supernatant, which procedure was repeated two times. To the supernatant, ½ amount of a solution of phenol/chloroform (1:1) was added, and the mixture was centrifuged to give a supernatant, an equal amount of chloroform was added, and the mixture was centrifuged to give a supernatant. To the supernatant, an equal amount of isopropanol containing 0.3 M sodium acetate was added, and the mixture was allowed to stand at room temperature for 30 minutes, after which the mixture was centrifuged to give sediment of the whole RNAs. Seventy % ethanol was added to the sediment, and the mixture was again centrifuged to give sediment, which was then dried and dissolved in water. mRNA was isolated from the whole RNAs as followings. In view of the fact that a poly A chain is attached to the 3′ terminus of mRNA, a polynucleotide having a poly T structure which was immobilized on the surface of latex beads was used to trap the mRNA, and then the mRNA was washed and eluted with spine column (Oligotex-dT30<Super>mRNA Purification Kit, Takara). Reverse transcription of the mRNA was conducted with a reverse transcriptase (Super Script II Reverse Transcriptase; catalogue No. 18064-014, GibcoBRL) using fluorescence-labeled nucleotides to give cDNAs that were introduced with Cy3-dUTP or Cy5-dUTP during the reverse transcription.
The labeled cDNAs were dissolved in TE buffer (10 mM Tris-HCl/1 mM EDTA, pH 8.0), and the solution was dropped on the DNA chip containing the whole genes of yeast (DNA Chip Research Inc. Japan) so that the cDNAs were hybridized on the DNA chip at 65° C. for over 12 hours. The fluoresces intensity of the DNA chip was read with a scanner, and the ratio relative to the fluorescence intensity resulting from the absence of chemical substance was estimated as the following, which is shown in Tables 1 to 9.
In the Tables, “Intensity” indicated in the rightmost column is a value of the level of expressed mRNA of each gene in control cells as divided by the average level of the expressions of the whole genes. A gene of which mRNA level is lower in control, and is higher in cases of addition of chemical substance, is especially useful in the detection of toxic substances.
Here, when a ratio of an amount of mRNA expressed in the presence of the chemical substance to an amount of mRNA expressed in the absence of the chemical substance is two or more, then it is considered significant.

Structure (SMILES): Cl[C@H]1[C@H](Cl)[C@@H](Cl)[C@@H](Cl)[C@H](Cl)[C@H]1Cl [(7), γ-Hexachlorocyclohexane]
- The level of expressed mRNA in the presence of chemical substance/The level of expressed mRNA in the absence of chemical substance, yeast gene YBR036C (gene YBR036C, Metabolism protein genes, DNA chip fluorescence ratio): 1.3
- The level of expressed mRNA in the presence of chemical substance/The level of expressed mRNA in the absence of chemical substance, yeast gene YBR298C (gene YBR298C, Metabolism protein genes, DNA chip fluorescence ratio): 1.7
- The level of expressed mRNA in the presence of chemical substance/The level of expressed mRNA in the absence of chemical substance, yeast gene YDL067C (gene YDL067C (mitochondria-located protein gene), yeast cultured two hours with chemical substance, DNA chip fluorescence ratio to control): 0.8
- The level of expressed mRNA in the presence of chemical substance/The level of expressed mRNA in the absence of chemical substance, yeast gene YDL078C (gene YDL078C, Metabolism protein genes, DNA chip fluorescence ratio): 1.7
- The level of expressed mRNA in the presence of chemical substance/The level of expressed mRNA in the absence of chemical substance, yeast gene YDL215C (gene YDL215C, Metabolism protein genes, DNA chip fluorescence ratio): 1.9
- The level of expressed mRNA in the presence of chemical substance/The level of expressed mRNA in the absence of chemical substance, yeast gene YDR079W (gene YDR079W (mitochondria-located protein gene), yeast cultured two hours with chemical substance, DNA chip fluorescence ratio to control): 1.3
- The level of expressed mRNA in the presence of chemical substance/The level of expressed mRNA in the absence of chemical substance, yeast gene YDR297W (gene YDR297W, Metabolism protein genes, DNA chip fluorescence ratio): 0.6
- The level of expressed mRNA in the presence of chemical substance/The level of expressed mRNA in the absence of chemical substance, yeast gene YDR387C (gene YDR387C, Metabolism protein genes, DNA chip fluorescence ratio): 1.3
- The level of expressed mRNA in the presence of chemical substance/The level of expressed mRNA in the absence of chemical substance, yeast gene YGL035C (gene YGL035C, Metabolism protein genes, DNA chip fluorescence ratio): 1.2
- The level of expressed mRNA in the presence of chemical substance/The level of expressed mRNA in the absence of chemical substance, yeast gene YGR062C (gene YGR062C (mitochondria-located protein gene), yeast cultured two hours with chemical substance, DNA chip fluorescence ratio to control): 1.3
- The level of expressed mRNA in the presence of chemical substance/The level of expressed mRNA in the absence of chemical substance, yeast gene YGR287C (gene YGR287C, Metabolism protein genes, DNA chip fluorescence ratio): 2.2
- The level of expressed mRNA in the presence of chemical substance/The level of expressed mRNA in the absence of chemical substance, yeast gene YJL070C (gene YJL070C, Metabolism protein genes, DNA chip fluorescence ratio): 1.4
- The level of expressed mRNA in the presence of chemical substance/The level of expressed mRNA in the absence of chemical substance, yeast gene YJL096W (gene YJL096W (mitochondria-located protein gene), yeast cultured two hours with chemical substance, DNA chip fluorescence ratio to control): 1.7
- The level of expressed mRNA in the presence of chemical substance/The level of expressed mRNA in the absence of chemical substance, yeast gene YJL180C (gene YJL180C (mitochondria-located protein gene), yeast cultured two hours with chemical substance, DNA chip fluorescence ratio to control): 1.6
- The level of expressed mRNA in the presence of chemical substance/The level of expressed mRNA in the absence of chemical substance, yeast gene YKR009C (gene YKR009C, Metabolism protein genes, DNA chip fluorescence ratio): 1.0
- The level of expressed mRNA in the presence of chemical substance/The level of expressed mRNA in the absence of chemical substance, yeast gene YLR295C (gene YLR295C (mitochondria-located protein gene), yeast cultured two hours with chemical substance, DNA chip fluorescence ratio to control): 1.1
- The level of expressed mRNA in the presence of chemical substance/The level of expressed mRNA in the absence of chemical substance, yeast gene YLR351C (gene YLR351C, Metabolism protein genes, DNA chip fluorescence ratio): 1.4
- The level of expressed mRNA in the presence of chemical substance/The level of expressed mRNA in the absence of chemical substance, yeast gene YLR375W (gene YLR375W, Metabolism protein genes, DNA chip fluorescence ratio): 0.9
- The level of expressed mRNA in the presence of chemical substance/The level of expressed mRNA in the absence of chemical substance, yeast gene YMR023C (gene YMR023C (mitochondria-located protein gene), yeast cultured two hours with chemical substance, DNA chip fluorescence ratio to control): 1.9
- The level of expressed mRNA in the presence of chemical substance/The level of expressed mRNA in the absence of chemical substance, yeast gene YMR267W (gene YMR267W (mitochondria-located protein gene), yeast cultured two hours with chemical substance, DNA chip fluorescence ratio to control): 1.2
- The level of expressed mRNA in the presence of chemical substance/The level of expressed mRNA in the absence of chemical substance, yeast gene YMR267W (gene YMR267W, Metabolism protein genes, DNA chip fluorescence ratio): 1.2
- The level of expressed mRNA in the presence of chemical substance/The level of expressed mRNA in the absence of chemical substance, yeast gene YMR278W (gene YMR278W, Metabolism protein genes, DNA chip fluorescence ratio): 1.8
- The level of expressed mRNA in the presence of chemical substance/The level of expressed mRNA in the absence of chemical substance, yeast gene YMR293C (gene YMR293C, Metabolism protein genes, DNA chip fluorescence ratio): 1.2
- The level of expressed mRNA in the presence of chemical substance/The level of expressed mRNA in the absence of chemical substance, yeast gene YNL073W (gene YNL073W (mitochondria-located protein gene), yeast cultured two hours with chemical substance, DNA chip fluorescence ratio to control): 1.1
- The level of expressed mRNA in the presence of chemical substance/The level of expressed mRNA in the absence of chemical substance, yeast gene YNR072W (gene YNR072W, Metabolism protein genes, DNA chip fluorescence ratio): 1.5
- The level of expressed mRNA in the presence of chemical substance/The level of expressed mRNA in the absence of chemical substance, yeast gene YOL096C (gene YOL096C, Metabolism protein genes, DNA chip fluorescence ratio): 1.7
- The level of expressed mRNA in the presence of chemical substance/The level of expressed mRNA in the absence of chemical substance, yeast gene YOR180C (gene YOR180C, Metabolism protein genes, DNA chip fluorescence ratio): 0.8
- The level of expressed mRNA in the presence of chemical substance/The level of expressed mRNA in the absence of chemical substance, yeast gene YOR316C (gene YOR316C (mitochondria-located protein gene), yeast cultured two hours with chemical substance, DNA chip fluorescence ratio to control): 1.4
- The level of expressed mRNA in the presence of chemical substance/The level of expressed mRNA in the absence of chemical substance, yeast gene YOR363C (gene YOR363C, Metabolism protein genes, DNA chip fluorescence ratio): 0.7
- The level of expressed mRNA in the presence of chemical substance/The level of expressed mRNA in the absence of chemical substance, yeast gene YPL040C (gene YPL040C (mitochondria-located protein gene), yeast cultured two hours with chemical substance, DNA chip fluorescence ratio to control): 0.8
- The level of expressed mRNA in the presence of chemical substance/The level of expressed mRNA in the absence of chemical substance, yeast gene YPL134C (gene YPL134C (mitochondria-located protein gene), yeast cultured two hours with chemical substance, DNA chip fluorescence ratio to control): 1.2
- The level of expressed mRNA in the presence of chemical substance/The level of expressed mRNA in the absence of chemical substance, yeast gene YPR184W (gene YPR184W, Metabolism protein genes, DNA chip fluorescence ratio): 1.3
- level of expressed mRNA in the presence of chemical substance / level in the absence of chemical substance (yeast gene YAL018C): 1.0
- The level of expressed mRNA in the presence of chemical substance/The level of expressed mRNA in the absence of chemical substance (yeast gene YAL053W): 0.7
- level of expressed mRNA in the presence of chemical substance / level in the absence of chemical substance (yeast gene YAR047C): 1.2
- level of expressed mRNA in the presence of chemical substance / level in the absence of chemical substance (yeast gene YAR064W): 1.1
- level of expressed mRNA in the presence of chemical substance / level in the absence of chemical substance (yeast gene YBL044W): 1.1
- The level of expressed mRNA in the presence of chemical substance/The level of expressed mRNA in the absence of chemical substance (yeast gene YBL048W): 1.9
- The level of expressed mRNA in the presence of chemical substance/The level of expressed mRNA in the absence of chemical substance (yeast gene YBL107C): 2.1
- level of expressed mRNA in the presence of chemical substance / level in the absence of chemical substance (yeast gene YBR012C): 1.5
- level of expressed mRNA in the presence of chemical substance / level in the absence of chemical substance (yeast gene YBR066C): 1.3
- level of expressed mRNA in the presence of chemical substance / level in the absence of chemical substance (yeast gene YBR124W): 1.1
- level of expressed mRNA in the presence of chemical substance / level in the absence of chemical substance (yeast gene YBR162C): 0.3
- level of expressed mRNA in the presence of chemical substance / level in the absence of chemical substance (yeast gene YBR287W): 1.1
- level of expressed mRNA in the presence of chemical substance / level in the absence of chemical substance (yeast gene YCL056C): 1.6
- level of expressed mRNA in the presence of chemical substance / level in the absence of chemical substance (yeast gene YCR007C): 2.0
- level of expressed mRNA in the presence of chemical substance / level in the absence of chemical substance (yeast gene YDL046W): 1.2
- The level of expressed mRNA in the presence of chemical substance/The level of expressed mRNA in the absence of chemical substance (yeast gene YDL072C): 1.8
- The level of expressed mRNA in the presence of chemical substance/The level of expressed mRNA in the absence of chemical substance (yeast gene YDL204W): 3.2
- The level of expressed mRNA in the presence of chemical substance/The level of expressed mRNA in the absence of chemical substance (yeast gene YDL222C): 1.0
- level of expressed mRNA in the presence of chemical substance / level in the absence of chemical substance (yeast gene YDR090C): 1.5
- level of expressed mRNA in the presence of chemical substance / level in the absence of chemical substance (yeast gene YDR128W): 0.8

Reference: patent US20100041089A1, “IMPROVED METHOD FOR DETECTING CHEMICAL […]” (priority 2006, published 2010)
